Patent US9222949B2, “Salvinorin immunoassay” (priority 2009, dated 2015)
In brackets after ≈: the same amount, converted by molar mass.

Experiments:
[1] = tested on: antisera generated to Immunogen I (hapten A-BTG); assay: competitive microtiter plate assay (ELISA) for salvinorin A and salvinorin B; type: binding, sheep
[2] = in vivo; cited from earlier work
[3] = Conjugate I, calibrator 0.16 ng/ml
[4] = Conjugate I, calibrator 0.31 ng/ml
[5] = Conjugate I, calibrator 0.63 ng/ml
[6] = Conjugate I, calibrator 1.25 ng/ml
[7] = Conjugate I, calibrator 2.50 ng/ml
[8] = Conjugate I, calibrator 5.00 ng/ml
[9] = Conjugate I, calibrator 10.00 ng/ml
[10] = Conjugate II, calibrator 0.16 ng/ml
[11] = Conjugate II, calibrator 0.31 ng/ml
[12] = Conjugate II, calibrator 0.63 ng/ml
[13] = Conjugate II, calibrator 1.25 ng/ml
[14] = Conjugate II, calibrator 2.50 ng/ml
[15] = Conjugate II, calibrator 5.00 ng/ml
[16] = Conjugate II, calibrator 10.00 ng/ml

| SMILES | % CR (percentage cross-reactivity based on 100% specificity to salvinorin A) ([1]; Conjugate I) [%] | IC50 (standard concentration which produces 50% B/Bo) ([1]; Conjugate I) [ng/mL] | % B/B0 [1, 3] [%] | % B/B0 [1, 4] [%] | % B/B0 [1, 5] [%] | % B/B0 [1, 6] [%] | % B/B0 [1, 7] [%] | % B/B0 [1, 8] [%] | % B/B0 [1, 9] [%] | % CR (percentage cross-reactivity based on 100% specificity to salvinorin A) ([1]; Conjugate II) [%] | IC50 (standard concentration which produces 50% B/Bo) ([1]; Conjugate II) [ng/mL] | % B/B0 [1, 10] [%] | % B/B0 [1, 11] [%] | % B/B0 [1, 12] [%] | % B/B0 [1, 13] [%] | % B/B0 [1, 14] [%] | % B/B0 [1, 15] [%] | % B/B0 [1, 16] [%] | action of duration [2] [min] |
| --- | --- | --- | --- | --- | --- | --- | --- | --- | --- | --- | --- | --- | --- | --- | --- | --- | --- | --- | --- |
| COC(=O)C1CC(O)C(=O)C2C1(C)CCC1C(=O)OC(c3ccoc3)CC12C (stereo not shown) [Salvinorin B] | 9.52 | 2.909 (≈ 7.45 nM) | 84 | 74 | 70 | 63 | 50 | 43 | 33 | 12.00 | 2.758 (≈ 7.06 nM) | 85 | 78 | 71 | 61 | 51 | 43 | 33 | – |
| COC(=O)[C@@H]1C[C@H](OC(C)=O)C(=O)[C@H]2[C@@]1(C)CC[C@H]1C(=O)O[C@H](c3ccoc3)C[C@]21C [Salvinorin A] | 100 | 0.277 (≈ 0.641 nM) | 62 | 48 | 36 | 26 | 18 | 13 | 9 | 100 | 0.331 (≈ 0.765 nM) | 64 | 51 | 39 | 30 | 20 | 14 | 9 | 10 to 15 |
